Results from US20210260055A1, “TOPICAL FORMULATIONS OF DGAT1 INHIBITORS AND THEIR METHODS OF USE” (Dermavant Sciences GmbH, priority 2018, published 2021).

Assays:
[1] = system: Human immortalized sebocytes; experiment: Cleaved Caspase 3 Assay; assay type: cell-based; conditions: for cleaved caspase 3: any concentration, 2, 3 and 5 day treatment; for sebocyte apoptosis: conditions of this in vitro assay
Method: This assay examines the ability of compounds to induce apoptosis by measuring Caspase 3 generated by proteolytic processing. Cells were seeded in tissue culture treated clear bottom plates. Compounds were added in the presence of Liver X Receptor (LXR) agonist (T0901317) and 1 μM insulin for 2, 3 and 5 days. For the 5 day treatment fresh compounds were added at Day 3. After the treatment period lysates were prepared according to the manufacturer's instructions and frozen at −80° C. until the day of the assay.
Protocol—Day 1: Human immortalized sebocytes were seeded at 10,000 cells/well in 96-well, clear bottom plates in Sebocyte Growth Medium and allowed to attach overnight at 37° C. Day 2: Medium was refreshed by removing seeding medium and adding fresh Sebocyte Growth Medium. Cells were maintained at 37° C. to allow degradation of the temperature sensitive SV40 large T antigen. Day 4: 1000× stocks (in DMSO) of each compound were prepared (3 mM and 100 μM) and were diluted 1:1000 in Sebocyte Treatment Media containing 1 μM T0901317 and 1 μM Insulin to give a final top concentration of 3000 nM and 100 nM for further 10-fold dilutions in the same medium according to the plate map below. The cell medium was removed and replaced with Sebocyte Treatment Medium containing 1 μM T0901317, 1 μM Insulin, compound dilution, or vehicle (DMSO) as per plate maps for a 2, 3 and 5 day treatment. For untreated controls, media was removed and replaced with Sebocyte Treatment Media only (no T091317 or Insulin). For the 5 day treatment cells were retreated as described above on Day 7. Day 6, 7 or Day 9: 1) After treatment, the plate was centrifuged at 300×g for 10 minutes. 2) After centrifugation, the medium was removed the cells rinsed with ice-cold PBS and then centrifuged again at 300×g for 10 minutes. 3) After centrifugation the PBS was removed and replaced with 30 μl/well and left on ice for 5 minutes. 4) After 5 minutes, the lysates were frozen at −80° C. until the day of the assay. Day of Assay: Buffers and reagents were prepared according to the manufacturer's instructions. 1) 25 μl of lysate was added to the corresponding well of a 96 well black clear bottom plates. 2) 200 μl of the prepared substrate solution B was added to each well. 3) After 1 hr incubation in the dark, the relative fluorescence was determined using the following settings: 380ex/420em.
Data analysis—IC50s were determined for each test sample by using appropriate curve fits in GraphPad Prism (v.7). […]

human sebocyte cell line = experiment: Nile Red Neutral Lipid Accumulation Assay; assay type: cell-based; conditions: day 3 of treatment, with 1 μM T0901317 and 1 μM insulin
Method: This assay examines the ability of compounds to stimulate or inhibit lipid accumulation in human sebocyte cell line. Cells were seeded in tissue culture treated black clear bottom plates. Compounds were added in the presence of Liver X Receptor (LXR) agonist (T0901317) and 1 μM insulin for 3 days and 5 days. For the 5 day treatment fresh compounds were added at Day 3. After the treatment period nile red dye was added and the relative fluorescence determined for both total and neutral lipids. The neutral/total lipid ratio was calculated and obtained values were normalized to both the Cell Titer Blue viability reagent.
Protocol—Day 1: Human immortalized sebocytes were seeded at 10,000 cells/well in 96-well black, clear bottom plates in Sebocyte Growth Medium and allowed to attach overnight at 37° C. […] 3) The relative fluorescence (RFU) of the incorporated stain was determined under 2 parameters: 540ex/620em with no cutoff (Total Lipid), and 485ex/555em with a 515 cutoff (Neutral Lipid) using bottom reads. […] Cell titer blue reagent (100 was then added to each well and the cells were allowed to incubate for 2 hours at 37° C., 5% CO2. 5) The RFU value was determined at 560ex/590em with a 570 cutoff using a top read.
Data Analysis—Cell viability is presented as cell titer blue fluorescence reading (RFU) for each treatment. […] Minimum and maximum values are determined by UNT and LXR+INS controls. […]

Row | IC50 (human sebocyte cell line; Homo sapiens, 72 h) [µM] | IC50 (human sebocyte cell line) [µM] | SMILES | cleaved caspase 3 [1] | sebocyte apoptosis [1]
1 | 0.0252 | – | Cc1nc(C)c(-c2ccc([C@H]3CC[C@H](CC(=O)O)CC3)cc2)nc1C(N)=O [DMVT-503, 2-((1R,4R)-4-(4-(6-carbamoyl-3,5-dimethylpyrazin-2-yl)phenyl)cyclohexyl)acetic acid] | No significant cleaved caspase 3 detected | did not induce sebocyte apoptosis
2 | – | 0.829 | CC1=C(/C=C/C(C)=C/C=C/C(C)=C\C(=O)O)C(C)(C)CCC1 [Mix 13-cis-RA, 13-cis-retinoic Acid, reference compound] | No significant cleaved caspase 3 detected | did not induce sebocyte apoptosis
